Assay results: patent publication US20130116251A1, “Novel HSP90 Inhibitor” (Nippon Kayaku Kabushiki Kaisha, priority 2005, published 2013)

Experiments:
[1] = system: HSP90 client protein ERα in MCF7 cells; assay: Measurement test for amount of HSP90 client protein ERα (Western blotting); format: cell-based; details: MCF7 cells treated 16 hours at 3-5 concentrations
Procedure: (§1) MCF7 cells (American Type Culture Collection, Rockville, Md.) were treated with the compounds of the present invention at various concentrations for 16 hours to confirm that the HSP90 inhibitors of the present invention induce a depression of intracellular concentration of the client protein or target polypeptide that bind to HSP90. The amount of the HSP90 client protein Her2 and ERα was evaluated by the Western blotting method.
(§2) One million cells were seeded in a 6 cm dish, and 24 hours later the compounds of the present invention (Example 1-2, Example 2-1, Example 2-13, Example 2-2, Example 3-4, Example 2-5, Example 3-16, Example 3-6, Example 2-7, Example 3-27, Example 2-10 and Example 3-18) were added. Cells treated with the compounds were washed, mixed with 150 μl of lysis buffer (RIPA, 150 mM NaCl, 1% NP40, 0.1% deoxycholate (sodium salt), 0.1% SDS, 1 mM EDTA, 10 mM Tris-HCl (pH 8.0)) and incubated at 4° C. for 30 minutes. The cell lysates were centrifuged (15,000 rpm, 20 minutes) and protein (20 μg) of the supernatant was subjected to SDS polyacrylamide gel electrophoresis (SDS-PAGE). After finishing the electrophoresis, proteins in the gel were transferred to a PVDF membrane. The membrane after the transfer was treated with a primary antibody against the HSP90 client protein (anti Her2 or anti ERa antibody, both from Santa Cruz Biotechnology, Santa Cruz, Calif.), then treated with secondary antibodies (anti-rabbit Ig, horse radish peroxidase conjugated F(ab′)2 fragment (derived from donkey): Amersham Biosciences, UK Limited, Buckinghamhshire, UK.) and then the amount of the client protein was detected as the intensity of chemiluminescence signal with a chemiluminescence reagent (ECL: Amersham Biosciences UK Limited, Buckinghamshire, UK).

[2] = system: Human breast cancer cells (MCF7); assay: Antiproliferative activity on MCF7 cells (methylene blue method); format: cell-based; details: Homo sapiens, MCF7, 72 h, MCF7 cells, 72 hours treatment, 660 nm absorbance after methylene blue staining; read-out: Antiproliferative activity IC50
Human lung cancer H460 = assay: Antitumor effect on nude mice transplanted with human lung cancer H460; format: in vivo; details: Table 9, tail vein, 5 days continuous, day 8, starting day = 1.0, control group 4.6 ± 3.1
Procedure: Antitumor Effect on Nude Mice Transplanted with Human Lung Cancer
Human lung cancer H460 tumor fragment, which had been passaged subcutaneously in nude mice, was made into about 3 mm fragment and transplanted subcutaneously to the back of nude mice using a trocar. When the tumor volume grew to about 50 mm^3 or above, the compound of the present invention was administered to the tail vein once a day for 5 or 7 days every day. The compound of the present invention was dissolved in DMSO, mixed with TWEEN 80, and then diluted with a 5% glucose injection solution and used. The vehicle of the compound was administered to the control group of OH-a01. The control groups in other experiments were not treated. The tumor volume was measured on the first administration day and on the evaluation day (7 or 8 days after the start of the administration), and the relative tumor volume of the evaluation day was obtained from the tumor volume on the first administration day. Further, the tumor volume was calculated by measuring the major axis (Lmm) and minor axis (Wmm) of the tumor and by the formula (L×W^2)/2.
Relative tumor volume represents the average relative tumor volume on day 7 after the start of the administration, assuming the tumor volume of the starting day is 1.0.
Relative tumor volume represents the average relative tumor volume on day 8 after the start of the administration, assuming the tumor volume of the starting day is 1.0.

[3] = system: HSP90 client protein Her2 in MCF7 cells; assay: Measurement test for amount of HSP90 client protein Her2 (Western blotting); format: cell-based; details: MCF7 cells treated 16 hours at 3-5 concentrations
Procedure: as §1, §2

rHSP90 = assay: HSP90 binding assay (BIACORE SPR; inhibition of binding between rHSP90 and fixed herbimycin A); details: concentration inhibiting binding between rHSP90 (50 μg/mL) and fixed herbimycin A by 50%, BIACORE-X SPR; read-out: HSP90 inhibitory activity IC50

IC50 [2]: 11 nM | melting point: 272 °C (dec.) | IC50 (rHSP90): 120 nM
SMILES: COc1ccc(-n2c(-c3cc(C(C)C)c(O)cc3O)n[nH]c2=O)cc1 [OH-a08, 5-(2,4-dihydroxy-5-isopropyl-phenyl)-4-(4-methoxy-phenyl)-2,4-dihydro-[1,2,4]triazol-3-one]
amount of HSP90 client protein ERα [1]: depression | Relative tumor volume (Average ± SD) (Human lung cancer H460; 100 mg/kg/day): 1.9 ± 1.0 | Relative tumor volume (Average ± SD) (Human lung cancer H460; 200 mg/kg/day): 1.1 ± 0.3 | amount of HSP90 client protein Her2 [3]: depression
